Patent US20250277066A1, “Substituted Pyridine-2,6-Bis(Phenylenephenolate) Complexes with Enhanced Solubility that are Useful as Catalyst Components for Olefin Polymerization” (ExxonMobil Chemical Patents Inc., priority 2022, published 2025)
Values joined by “and” are separate entries in the source; they are usually repeats but may differ in a detail not shown here. Equal entries are not always repeated.

Experiments:
[1] = Solubility of complexes in isohexane (Method 1 or Method 2); format: physicochemical; details: ambient temperature (20° C.-25° C.), mass includes residual solvent
Procedure: Solubility studies for all other complexes were performed using material as synthesized. […] Solvents used were sparged with nitrogen (30-60 minutes) and dried over 3 Å mole sieves. Unless stated otherwise all measurements were performed at ambient temperature (20° C.-25° C.).
General procedure: Solubility was determined using the following Method 1 or Method 2. For calculations, a value of 0.672 g/mL was used for the density of isohexane.
Method 1: A tared vial was loaded with a small amount of the complex (actual mass recorded, including any residual solvent as noted above, typically 5-30 mg). Then a small stir bar (8 mm) was added. Solvent was then added and the mixture was stirred rapidly (1000 rpm). […] This process was repeated until either a clear solution was obtained (no visible solids or murkiness) or the vial was full. As the mixture approached homogeneity (i.e., few remaining solids observed) the volume of the solvent additions was kept small (<1 mL) to minimize excess beyond the solvent required to achieve homogeneity. The stir bar was then removed and the mass of the mixture was measured. If a clear solution had formed then the solubility of the complex was calculated as a single value, based on the mass of complex and the amount of solvent added to achieve a homogeneous solution. If the mixture remained heterogeneous (visible solids or murky), then the value reported is given as being “less than” the calculated value.
Method 2: A measured amount of complex (actual mass recorded, including any residual solvent as noted above) was added to a tared vial, followed by a stir bar. Dry isohexanes were added in small portions and the resulting mixture was stirred after each portion of isohexanes. If a clear solution had formed then the solubility was reported as a range, the lower bound of solubility calculated using the total solvent added to achieve a homogenous solution and the upper bound of solubility calculated using the total solvent measured prior to achieving a homogenous solution. If the mixture remained heterogeneous (visible solids or murky), the upper bound of solubility was calculated using the total solvent added. Formula used to calculate solubility are listed below. Solvent present in the complex is included in the mass and formula weight of the complexes.

[2] = DSC melting point of polymers (TA-Q100); format: physicochemical
Procedure: Differential Scanning Calorimetry (DSC) measurements were performed on a TA-Q100 instrument to determine the melting point of the polymers. Samples were pre-annealed at 220° C. for 15 minutes and then allowed to cool to room temperature overnight. The samples were then heated to 220° C. at a rate of 100° C./minute and then cooled at a rate of 50° C./minute. Melting points were collected during the heating period. The results are reported in the Table 2 under the heading, Tm (° C.).

SMILES | Solubility (s) in Isohexane [1] | Solubility (s) in Isohexane (wt %) [1] | Tm ([2]; polymer made with activator A, T 70 ° C.) | Tm ([2]; polymer made with activator A, T 100 ° C.) | Tm ([2]; polymer made with activator B, T 70 ° C.) | Tm ([2]; polymer made with activator B, T 100 ° C.) | Tm ([2]; polypropylene made with activator A at 70° C.) | Tm ([2]; polypropylene made with activator A at 100° C.) | Tm ([2]; polypropylene made with activator B at 70° C.) | Tm ([2]; polypropylene made with activator B at 100° C.)
Cc1cc2[n+]3c(c1)-c1ccccc1-c1cc(C(C)(C)C)cc(C45CC6CC(CC(C6)C4)C5)c1[O][Zr-]3([CH3])([CH3])[O]c1c(cc(C(C)(C)C)cc1C13CC4CC(CC(C4)C1)C3)-c1ccccc1-2 [Complex 3] | <3.2 mM | <0.5 wt % | 150.4 °C and 150.9 °C | 149.4 °C and 148.1 °C and 150.1 °C | 150.5 °C and 150.9 °C | 148.9 °C and 149.8 °C | – | – | – | –
CC(C)(C)c1cc2c(c(C34CC5CC(CC(C5)C3)C4)c1)[O][Zr-]1([CH3])([CH3])[O]c3c(cc(C(C)(C)C)cc3C34CC5CC(CC(C5)C3)C4)-c3ccccc3-c3cccc([n+]31)-c1ccccc1-2 [Complex 2] | – | 0.081 wt % | – | – | – | – | 147.1 °C and 148.3 °C | 147.6 °C and 145.6 °C and 146.6 °C | 148.8 °C and 149.3 °C and 148.6 °C | 148.0 °C and 147.3 °C
